Assay results published in patent publication US8114862B2, “TGR5 modulators and methods of use thereof” (Intercept Pharmaceuticals, Inc., priority 2008, dated 2012).
Like-named read-outs stand apart in the source and are kept apart here. Marks after values point to notes of the source that are not given here.

What was measured:
hFXR = biological target: T1, hFXR (Homo sapiens, UniProt Q96RI1); experiment: FXR luciferase reporter assay in COS1 cells; format: cell-based
T1 construct: expressed in transfected cells; host or cells: COS1 cells

TGR5 [1] = biological target: T2, TGR5 (Homo sapiens, UniProt Q8TDU6); experiment: CRE-driven luciferase reporter assay in TGR5-transfected CHO cells; format: cell-based; parameters: host or cells: CHO cells
T2 sequence (Q8TDU6 1-330): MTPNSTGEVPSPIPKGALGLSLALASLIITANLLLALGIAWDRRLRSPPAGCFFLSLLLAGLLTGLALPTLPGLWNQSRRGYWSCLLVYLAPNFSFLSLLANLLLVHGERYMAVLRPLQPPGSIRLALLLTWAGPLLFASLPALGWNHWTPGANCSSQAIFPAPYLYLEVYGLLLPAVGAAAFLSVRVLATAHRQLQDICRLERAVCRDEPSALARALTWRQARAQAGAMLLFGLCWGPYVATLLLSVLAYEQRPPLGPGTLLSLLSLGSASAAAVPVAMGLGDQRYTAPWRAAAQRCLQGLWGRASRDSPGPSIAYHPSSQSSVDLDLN

TGR5 [2] = biological target: T2, TGR5; experiment: TGR5 receptor in vitro assay (Table 1); format: cell-based
human FXR = human FXR (Homo sapiens, UniProt Q96RI1); experiment: FRET recruitment of SRC-1 peptide to human FXR, cell-free ELiSA
TGR5 [3] = biological target: T2, TGR5; experiment: Direct comparison 6-ethyl vs 6-methyl 23-methyl cholic acid: TGR5; format: cell-based
FXR = biological target: T3, FXR (Homo sapiens, UniProt Q96RI1); experiment: Direct comparison 6-ethyl vs 6-methyl 23-methyl cholic acid: FXR; format: biochemical
T3 sequence (Q96RI1 262-486 limits assumed): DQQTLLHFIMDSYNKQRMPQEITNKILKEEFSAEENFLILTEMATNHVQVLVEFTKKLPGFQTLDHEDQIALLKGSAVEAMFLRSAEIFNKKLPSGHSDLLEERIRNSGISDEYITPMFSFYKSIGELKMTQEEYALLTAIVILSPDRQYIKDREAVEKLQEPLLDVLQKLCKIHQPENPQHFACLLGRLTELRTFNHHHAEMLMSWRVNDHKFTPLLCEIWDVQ

[4] = Choleretic effect (bile flow) in bile fistula rat, id and iv infusion; format: in vivo; conditions: 1 (μmol/min)/kg bw over 1 h
[5] = Biliary secretion and metabolism in bile fistula rat, id and iv infusion; conditions: rat, in vivo, 1 μmol/kg/min
[6] = Previous study of OA tolerability in animals; format: in vivo
Protocol: Therefore, OA was administered at the dose of 50 mg/kg/d in this study.

in vitro = conditions: human
[7] = values from literature; cited from earlier work
[8] = values from literature; cited from earlier work; remark: listed apart in the source
bovine serum albumin = bovine serum albumin (Bos taurus, UniProt P02769); conditions: values from literature; cited from earlier work
Sequence of bovine serum albumin (P02769 25-607): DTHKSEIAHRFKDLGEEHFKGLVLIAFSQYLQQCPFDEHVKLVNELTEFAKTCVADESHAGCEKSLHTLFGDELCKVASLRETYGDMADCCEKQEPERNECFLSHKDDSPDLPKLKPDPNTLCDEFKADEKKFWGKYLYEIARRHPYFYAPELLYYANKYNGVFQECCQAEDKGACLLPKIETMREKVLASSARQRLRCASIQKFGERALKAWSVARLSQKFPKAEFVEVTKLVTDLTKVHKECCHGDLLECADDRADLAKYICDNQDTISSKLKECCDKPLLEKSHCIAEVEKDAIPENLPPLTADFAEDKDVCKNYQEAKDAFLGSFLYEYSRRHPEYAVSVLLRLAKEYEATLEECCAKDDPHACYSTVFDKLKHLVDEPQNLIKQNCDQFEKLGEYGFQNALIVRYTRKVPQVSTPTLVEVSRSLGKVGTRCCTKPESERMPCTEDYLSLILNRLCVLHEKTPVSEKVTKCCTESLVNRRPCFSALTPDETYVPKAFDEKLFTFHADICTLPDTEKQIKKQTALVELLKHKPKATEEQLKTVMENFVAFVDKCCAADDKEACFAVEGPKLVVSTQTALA

Sequence of human FXR (Q96RI1 whole entry): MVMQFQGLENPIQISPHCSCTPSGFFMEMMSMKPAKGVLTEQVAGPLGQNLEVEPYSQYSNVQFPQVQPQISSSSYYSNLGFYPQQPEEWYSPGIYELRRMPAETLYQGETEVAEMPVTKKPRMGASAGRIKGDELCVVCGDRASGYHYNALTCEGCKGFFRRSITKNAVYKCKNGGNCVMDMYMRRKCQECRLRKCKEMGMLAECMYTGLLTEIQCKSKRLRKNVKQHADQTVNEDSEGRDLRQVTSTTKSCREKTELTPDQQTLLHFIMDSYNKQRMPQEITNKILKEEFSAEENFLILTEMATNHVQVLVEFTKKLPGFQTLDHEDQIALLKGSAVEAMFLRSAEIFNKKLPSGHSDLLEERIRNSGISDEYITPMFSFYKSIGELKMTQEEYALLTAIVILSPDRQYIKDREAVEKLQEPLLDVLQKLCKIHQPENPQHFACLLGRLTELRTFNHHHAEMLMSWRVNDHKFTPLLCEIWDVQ
T1 sequence (Q96RI1 whole entry): as above
T1 sequence (P28700 whole entry partner): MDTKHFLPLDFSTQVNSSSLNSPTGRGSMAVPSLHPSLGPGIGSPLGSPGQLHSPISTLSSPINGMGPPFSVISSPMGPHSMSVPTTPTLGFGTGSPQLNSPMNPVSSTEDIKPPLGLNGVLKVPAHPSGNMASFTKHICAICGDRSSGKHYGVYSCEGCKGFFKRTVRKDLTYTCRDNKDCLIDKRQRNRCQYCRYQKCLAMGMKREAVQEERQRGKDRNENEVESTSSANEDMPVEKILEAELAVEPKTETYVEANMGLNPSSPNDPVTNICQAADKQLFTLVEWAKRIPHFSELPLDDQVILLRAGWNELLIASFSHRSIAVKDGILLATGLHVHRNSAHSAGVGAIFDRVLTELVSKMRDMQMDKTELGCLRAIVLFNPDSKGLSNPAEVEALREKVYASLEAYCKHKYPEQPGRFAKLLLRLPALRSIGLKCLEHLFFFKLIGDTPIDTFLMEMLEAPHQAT

With `C[C@H]1[C@@H](O)C2C3CC[C@H]([C@H](C)C[C@H](C)C(=O)O)[C@@]3(C)[C@@H](O)CC2[C@@]2(C)CC[C@@H](O)C[C@@H]12` (stereo partly drawn) the “FXR Efficacy” value (hFXR; % of activity vs. 10 μM 6ECDCA) was 0.76%, the EC50 (hFXR; Table 3) was 22.8 µM and the “EC50 ratio (TGR5/FXR)” value (TGR5 [1]) was 0.035. The “TGR5 Efficacy” value (TGR5 [1]; % of activity vs. 10 μM LCA) was 75.6% and the EC50 (TGR5 [1]; Table 3) was 0.8 µM.
For `C[C@H]1[C@@H](O)C2C3CC[C@H]([C@H](C)CCC(=O)O)[C@@]3(C)CCC2[C@@]2(C)CC[C@@H](O)C[C@@H]12` (stereo partly drawn) [Compound 6α-MeCDCA], the EC50 (TGR5 [2]) was 0.37 µM, the “TGR5 Data Efficacy” value (TGR5 [2]) was 119% and the EC50 (human FXR) was 0.21 µM. The “FXR Data Efficacy” value (human FXR) was 148%.
Work on `C[C@H]1[C@@H](O)[C@@H]2[C@H](C[C@H](O)[C@]3(C)[C@@H]([C@H](C)C[C@H](C)C(=O)O)CC[C@@H]23)[C@@]2(C)CC[C@@H](O)C[C@@H]12` [Ih3, 23(S)-Methyl-6α-methyl-3α,7α,12α-trihydroxy-5β-cholan-24-oic acid] yielded an EC50 (TGR5 [3]; first experiment, read-out: TGR5 I exp EC50) of 1.7 µM, an EC50 (TGR5 [3]; second experiment, read-out: TGR5 II exp EC50) of 3 µM and an EC50 (FXR; first experiment, read-out: FXR I exp EC50) of 10 µM. The EC50 (FXR; second experiment, read-out: FXR II exp EC50) was 7.8 µM.
For `CC[C@H]1[C@@H](O)[C@@H]2[C@H](C[C@H](O)[C@]3(C)[C@@H]([C@H](C)C[C@@H](C)C(=O)O)CC[C@@H]23)[C@@]2(C)CC[C@@H](O)C[C@@H]12` [Ii3e, 6α-ethyl-(23R)-methyl-3α,7α,12α trihydroxy-5β-cholan-24-oic acid], the “SV0: maximum bile secretion rate” value ([4]; id infusion) was 81 ± 8 (μL/min)/kg bw, the “SV0: maximum bile secretion rate” value ([4]; iv infusion) was “(90 ± 5) (μL/min)/kg bw” and the fraction unbound at 4 h [5] was 0.68 ± 0.08. It also gave a fraction unbound at 4 h ([5]; iv) of 0.65.
For `CC1(C)CC[C@]2(C(=O)O)CC[C@]3(C)C(=CC[C@@H]4[C@@]5(C)CC[C@H](O)C(C)(C)[C@@H]5CC[C@]43C)[C@@H]2C1` [OA, oleanolic acid], the toxicity ([6]; 100 mg/kg/day) was “some signs of toxicity” and the tolerability ([6]; lower dose) was “well tolerated”.
`CN[C@@H]1C[C@H]2O[C@@](C)([C@@H]1OC)n1c3ccccc3c3c4c(c5c6ccccc6n2c5c31)C(=O)NC4` [Staurosporine] showed an EC50 at 4 h (in vitro) of 15 µM.
In the case of `C[C@H](CCC(=O)NCCS(=O)(=O)O)[C@H]1CC[C@H]2[C@@H]3[C@H](O)C[C@@H]4C[C@H](O)CC[C@]4(C)[C@H]3CC[C@]12C` [TCDCA], the “CMC […] Na+” value [7] is given as 3.0* mM, the “LogPA- (1-octanol-water partition coefficient, ionized species)” value [8] is given as 0.9* and the “Albumin Binding” value (bovine serum albumin) is given as 70* %.
For `C[C@H](CCC(=O)NCCS(=O)(=O)O)[C@H]1CC[C@H]2[C@@H]3[C@@H](O)C[C@@H]4C[C@H](O)CC[C@]4(C)[C@H]3CC[C@]12C` [TUDCA], the “CMC […] Na+” value [7] is listed as 2.2* mM, the “LogPA- (1-octanol-water partition coefficient, ionized species)” value [8] is listed as 1.1* and the “Albumin Binding” value (bovine serum albumin) is listed as 67* %.
`CC/C(=C(\c1ccccc1)c1ccc(OCCN(C)C)cc1)c1ccccc1` [Tamoxifen] gave an EC50 at 4 h (in vitro; HepG2 cells) of 47 µM.
